pIC50: −log10 of the molar value.
Tested on: K86415-001-R-J1-PDC complex spheroids, viability
Experiment: Anticancer human tumor K86415-001-R-J1-PDC patient-derived lung adenocarcinoma cell line growth inhibition [RAS]
Conditions: for pIC50: curve of first compound; for viability, T/C: stronger effect = lower value
In short: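 Multi-cell-type spheroids: tumor cells plus HUVEC endothelial cells and mesenchymal stem cells. RAS-pathway inhibitors were combined with targeted agents, each dosed in half-log steps down from clinical Cmax, or from 10 microM when Cmax was unknown.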

[1] = second compound 0.0316 µM, first compound 0.0316 µM
[2] = second compound 0.0316 µM, first compound 0.1 µM
[3] = second compound 0.0316 µM, first compound 0.316 µM
[4] = second compound 0.0316 µM, first compound 1 µM
[5] = second compound 0.0316 µM, first compound 3.16 µM
[6] = second compound 0.0316 µM, first compound 10 µM
[7] = second compound 0.1 µM, first compound 0.0316 µM
[8] = second compound 0.1 µM, first compound 0.1 µM
[9] = second compound 0.1 µM, first compound 0.316 µM
[10] = second compound 0.1 µM, first compound 1 µM
[11] = second compound 0.1 µM, first compound 3.16 µM
[12] = second compound 0.1 µM, first compound 10 µM
[13] = second compound 0.316 µM, first compound 0.0316 µM
[14] = second compound 0.316 µM, first compound 0.1 µM
[15] = second compound 0.316 µM, first compound 0.316 µM
[16] = second compound 0.316 µM, first compound 1 µM
[17] = second compound 0.316 µM, first compound 3.16 µM
[18] = second compound 0.316 µM, first compound 10 µM
[19] = second compound 1 µM, first compound 0.0316 µM
[20] = second compound 1 µM, first compound 0.1 µM
[21] = second compound 1 µM, first compound 0.316 µM
[22] = second compound 1 µM, first compound 1 µM
[23] = second compound 1 µM, first compound 3.16 µM
[24] = second compound 1 µM, first compound 10 µM
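Note: spheroids exposed to agents for seven days before readout.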

`CC(=O)OC12COC1CC(O)C1(C)C(=O)C(O)C3=C(C)C(OC(=O)C(O)C(NC(=O)OC(C)(C)C)c4ccccc4)CC(O)(C(OC(=O)c4ccccc4)C21)C3(C)C` (stereo unspecified) + C=CC(=O)N1CCN(c2nc(OCC3CCCN3C)nc3c(F)c(-c4nc(N)cc(C)c4C(F)(F)F)c(Cl)cc23)C(C)C1 was tested, and the pIC50 (second compound 0.00316 µM) was > 7.50, the pIC50 (second compound 0.01 µM) was > 7.50 and the pIC50 (second compound 0.0316 µM) was > 7.50. For the same molecule, the pIC50 (second compound 0.1 µM) was > 7.50, the pIC50 (second compound 0.316 µM) was > 7.50 and the pIC50 (second compound 1 µM) was > 7.50. It also gave a viability, T/C (second compound 0.00316 µM, first compound 0.0316 µM) of 15.6%, a viability, T/C (second compound 0.00316 µM, first compound 0.1 µM) of 15.6% and a viability, T/C (second compound 0.00316 µM, first compound 0.316 µM) of 16.5%. It also gave a viability, T/C (second compound 0.00316 µM, first compound 1 µM) of 15.9%, a viability, T/C (second compound 0.00316 µM, first compound 3.16 µM) of 15.5% and a viability, T/C (second compound 0.00316 µM, first compound 10 µM) of 15.2%. It also gave a viability, T/C (second compound 0.01 µM, first compound 0.0316 µM) of 13.9%, a viability, T/C (second compound 0.01 µM, first compound 0.1 µM) of 14.1% and a viability, T/C (second compound 0.01 µM, first compound 0.316 µM) of 12.5%. The viability, T/C (second compound 0.01 µM, first compound 1 µM) was 13.2%, the viability, T/C (second compound 0.01 µM, first compound 3.16 µM) was 10.8% and the viability, T/C (second compound 0.01 µM, first compound 10 µM) was 9.16%. For the same molecule, the viability, T/C [1] was 11.1%, the viability, T/C [2] was 10.8% and the viability, T/C [3] was 9.94%. It also gave a viability, T/C [4] of 9.79%, a viability, T/C [5] of 10.3% and a viability, T/C [6] of 8.13%. The viability, T/C [7] was 9.79%, the viability, T/C [8] was 11.2% and the viability, T/C [9] was 9.84%. For the same molecule, the viability, T/C [10] was 9.57%, the viability, T/C [11] was 11.5% and the viability, T/C [12] was 9.04%. It also gave a viability, T/C [13] of 7.89%, a viability, T/C [14] of 9.45% and a viability, T/C [15] of 11.5%. It also gave a viability, T/C [16] of 9.36%, a viability, T/C [17] of 10.3% and a viability, T/C [18] of 8.4%. The viability, T/C [19] was 8.13%, the viability, T/C [20] was 10.6% and the viability, T/C [21] was 12.8%. The viability, T/C [22] was 9.39%, the viability, T/C [23] was 11.2% and the viability, T/C [24] was 10.5%.
Molecule `Cc1nc(N2CCC3(CC2)COC(C)C3N)c(CO)nc1Sc1ccnc(N)c1Cl` (stereo unspecified) + C#Cc1c(F)ccc2cc(O)cc(-c3ncc4c(N5CC6CCC(C5)N6)nc(OCC56CCCN5CC(F)C6)nc4c3F)c12 has a pIC50 (second compound 0.0316 µM) of 6.99, a pIC50 (second compound 0.1 µM) of 6.98 and a pIC50 (second compound 0.316 µM) of 7.31. For the same molecule, the pIC50 (second compound 1 µM) was > 7.50, the pIC50 (second compound 3.16 µM) was > 7.50 and the pIC50 (second compound 10 µM) was > 7.50. The viability, T/C [1] was 64.5%, the viability, T/C [2] was 50.2% and the viability, T/C [3] was 33.5%. It also gave a viability, T/C [4] of 22.3%, a viability, T/C [5] of 19% and a viability, T/C [6] of 17.5%. For the same molecule, the viability, T/C [7] was 59.5%, the viability, T/C [8] was 51.5% and the viability, T/C [9] was 29.6%. The viability, T/C [10] was 20%, the viability, T/C [11] was 14.9% and the viability, T/C [12] was 14%. For the same molecule, the viability, T/C [13] was 54.6%, the viability, T/C [14] was 42.8% and the viability, T/C [15] was 21.3%. For the same molecule, the viability, T/C [16] was 13.1%, the viability, T/C [17] was 11.4% and the viability, T/C [18] was 10.8%. It also gave a viability, T/C [19] of 41.6%, a viability, T/C [20] of 25.7% and a viability, T/C [21] of 15.7%. The viability, T/C [22] was 7.73%, the viability, T/C [23] was 8.67% and the viability, T/C [24] was 8.04%. The viability, T/C (second compound 3.16 µM, first compound 0.0316 µM) was 24.1%, the viability, T/C (second compound 3.16 µM, first compound 0.1 µM) was 13.5% and the viability, T/C (second compound 3.16 µM, first compound 0.316 µM) was 11%. The viability, T/C (second compound 3.16 µM, first compound 1 µM) was 7.3%, the viability, T/C (second compound 3.16 µM, first compound 3.16 µM) was 6.6% and the viability, T/C (second compound 3.16 µM, first compound 10 µM) was 5.45%. The viability, T/C (second compound 10 µM, first compound 0.0316 µM) was 10.5%, the viability, T/C (second compound 10 µM, first compound 0.1 µM) was 8.85% and the viability, T/C (second compound 10 µM, first compound 0.316 µM) was 6.18%. It also gave a viability, T/C (second compound 10 µM, first compound 1 µM) of 5.37%, a viability, T/C (second compound 10 µM, first compound 3.16 µM) of 3.83% and a viability, T/C (second compound 10 µM, first compound 10 µM) of 3.85%.
With `CCc1c2c(nc3ccc(O)cc13)-c1cc3c(c(=O)n1C2)COC(=O)[C@]3(O)CC` + CCn1c(-c2cc(N3CCN(C)CC3)cnc2C(C)OC)c2c3cc(ccc31)-c1csc(n1)CC(NC(=O)C1CC1C)C(=O)N1CCCC(N1)C(=O)OCC(C)(C)C2 the pIC50 (second compound 0.000949 µM) was > 9.02, the pIC50 (second compound 0.003 µM) was > 9.02 and the pIC50 (second compound 0.00949 µM) was > 9.02. For the same molecule, the pIC50 (second compound 0.03 µM) was > 9.02, the pIC50 (second compound 0.0949 µM) was > 9.02 and the pIC50 (second compound 0.3 µM) was > 9.02. It also gave a viability, T/C (second compound 0.000949 µM, first compound 0.000949 µM) of 43.2%, a viability, T/C (second compound 0.000949 µM, first compound 0.003 µM) of 23.9% and a viability, T/C (second compound 0.000949 µM, first compound 0.00949 µM) of 12.9%. The viability, T/C (second compound 0.000949 µM, first compound 0.03 µM) was 16.1%, the viability, T/C (second compound 0.000949 µM, first compound 0.0949 µM) was 11.6% and the viability, T/C (second compound 0.000949 µM, first compound 0.3 µM) was 4.09%. It also gave a viability, T/C (second compound 0.003 µM, first compound 0.000949 µM) of 22%, a viability, T/C (second compound 0.003 µM, first compound 0.003 µM) of 13.5% and a viability, T/C (second compound 0.003 µM, first compound 0.00949 µM) of 12.4%. It also gave a viability, T/C (second compound 0.003 µM, first compound 0.03 µM) of 13.3%, a viability, T/C (second compound 0.003 µM, first compound 0.0949 µM) of 10.2% and a viability, T/C (second compound 0.003 µM, first compound 0.3 µM) of 3.14%. The viability, T/C (second compound 0.00949 µM, first compound 0.000949 µM) was 9.02%, the viability, T/C (second compound 0.00949 µM, first compound 0.003 µM) was 7.98% and the viability, T/C (second compound 0.00949 µM, first compound 0.00949 µM) was 8.68%. The viability, T/C (second compound 0.00949 µM, first compound 0.03 µM) was 8.25%, the viability, T/C (second compound 0.00949 µM, first compound 0.0949 µM) was 5.09% and the viability, T/C (second compound 0.00949 µM, first compound 0.3 µM) was 2.46%. For the same molecule, the viability, T/C (second compound 0.03 µM, first compound 0.000949 µM) was 5.24%, the viability, T/C (second compound 0.03 µM, first compound 0.003 µM) was 5.47% and the viability, T/C (second compound 0.03 µM, first compound 0.00949 µM) was 3.66%. The viability, T/C (second compound 0.03 µM, first compound 0.03 µM) was 3.44%, the viability, T/C (second compound 0.03 µM, first compound 0.0949 µM) was 2.88% and the viability, T/C (second compound 0.03 µM, first compound 0.3 µM) was 1.87%. It also gave a viability, T/C (second compound 0.0949 µM, first compound 0.000949 µM) of 3.46%, a viability, T/C (second compound 0.0949 µM, first compound 0.003 µM) of 3.37% and a viability, T/C (second compound 0.0949 µM, first compound 0.00949 µM) of 2.84%. For the same molecule, the viability, T/C (second compound 0.0949 µM, first compound 0.03 µM) was 2.41%, the viability, T/C (second compound 0.0949 µM, first compound 0.0949 µM) was 1.76% and the viability, T/C (second compound 0.0949 µM, first compound 0.3 µM) was 0.94%. It also gave a viability, T/C (second compound 0.3 µM, first compound 0.000949 µM) of 2.47%, a viability, T/C (second compound 0.3 µM, first compound 0.003 µM) of 2.36% and a viability, T/C (second compound 0.3 µM, first compound 0.00949 µM) of 2.47%. It also gave a viability, T/C (second compound 0.3 µM, first compound 0.03 µM) of 2.01%, a viability, T/C (second compound 0.3 µM, first compound 0.0949 µM) of 2.07% and a viability, T/C (second compound 0.3 µM, first compound 0.3 µM) of 0.89%.
